The values that follow come from patent US8211901B2, “Naphthamide derivatives as multi-target protein kinase inhibitors and histone deacetylase inhibitors” (Shenzhen Chipscreen Biosciences Ltd., priority 2009, dated 2012).

One data set deals with A-498. Put plainly: Tumor cell proliferation (MTS), A-498. It is filed as cell-based. The note with it: Homo sapiens, A498; 72 hours, complete medium. The procedure:
(§1) Measurement of In Vivo Cell Proliferation:
(§2) Tumor cells were trypsinized and plated into 96-well plates at 3,000 per well and incubated in complete medium with 10% FBS for 24 hours. Compounds were added over a final concentration range of 100 μmol/L to 100 nmol/L in 0.1% DMSO and incubated for 72 hours in complete medium. The effects on proliferation were determined by addition of MTS reagent (Promega) according to the instruction, incubation for 2 hours at 37° C. in CO2 incubator, and record the absorbance at 490 nm using an ELISA plate reader.

The next data set relates to Class I HDAC. Put plainly: P21 reporter gene assay in HeLa cells. It is filed as cell-based. As to conditions: 24 hours. The procedure: HDAC subtype selectivity inhibition assay of tested compounds was carried out by several reporter gene assays experiments. Briefly, HeLa cells were seeded in 96-well plates the day before transfection to give a confluence of 50-80%. Cells were transfected with one of reporter gene plasmid containing a promoter sequence or response element upstream of a luciferase gene construct using FuGene6 transfection reagent according to the manufacturer's instruction (Roche). The promoters or response elements including p21-promoter was fused upstream to the luciferase gene reporter construct. For normalizing the transfection efficiency, a GFP expression plasmid was cotransfected. Cells were allowed to express protein for 24 hours followed by addition of individual compounds or the vehicle (DMSO). 24 hours later the cells were harvested, and the luciferase assay and GFP assay were performed using corresponding assay kits according to the manufacturer's instructions (Promega).
(Reporter assays use an easily measured gene product as a stand-in for the process of interest.)

A further data set relates to MCF-7. In words: Tumor cell proliferation (MTS), MCF-7. Format: cell-based. As to conditions: Homo sapiens, MCF7; 72 hours, complete medium. Here is the method:
as §1, §2
(§3) Human Cell Lines are Listed Below:
MCF-7: Mammary gland adenocarcinoma

In the next data set the test system is A549. Put plainly: Tumor cell proliferation (MTS), A549. It is filed as cell-based. The note with it: Homo sapiens, 72 hours, complete medium. The procedure:
as §1, §2, §3
A549: Non small cell lung carcinoma

The next data set deals with HUVEC cells. Put plainly: VEGF dependent cell proliferation (MTS). It is filed as cell-based. The note with it: Homo sapiens, VEGF 165 50 ng/ml, 72 hours, serum-free medium, read-out: GI50 nM (VEGF ligand-dependent cell proliferation). The procedure:
VEGF Dependent Cell Proliferation:
HUVEC cells were plated into 96-well plates at 6,000 per well and incubated with serum-free medium for 2 hours. Compounds and VEGF 165 (50 ng/ml) were added and incubated for 72 hours in serum-free medium. The effects on proliferation were determined by addition of MTS reagent (Promega) according to the instruction, incubation for 2 hours at 37° C. in CO2 incubator, and record the absorbance at 490 nm using an ELISA plate reader.

For another data set, the target named is T1, human PDGFRβ (Homo sapiens, UniProt P09619).
T1 construct: expressed in transfected cells
T1 sequence (P09619 33-1106): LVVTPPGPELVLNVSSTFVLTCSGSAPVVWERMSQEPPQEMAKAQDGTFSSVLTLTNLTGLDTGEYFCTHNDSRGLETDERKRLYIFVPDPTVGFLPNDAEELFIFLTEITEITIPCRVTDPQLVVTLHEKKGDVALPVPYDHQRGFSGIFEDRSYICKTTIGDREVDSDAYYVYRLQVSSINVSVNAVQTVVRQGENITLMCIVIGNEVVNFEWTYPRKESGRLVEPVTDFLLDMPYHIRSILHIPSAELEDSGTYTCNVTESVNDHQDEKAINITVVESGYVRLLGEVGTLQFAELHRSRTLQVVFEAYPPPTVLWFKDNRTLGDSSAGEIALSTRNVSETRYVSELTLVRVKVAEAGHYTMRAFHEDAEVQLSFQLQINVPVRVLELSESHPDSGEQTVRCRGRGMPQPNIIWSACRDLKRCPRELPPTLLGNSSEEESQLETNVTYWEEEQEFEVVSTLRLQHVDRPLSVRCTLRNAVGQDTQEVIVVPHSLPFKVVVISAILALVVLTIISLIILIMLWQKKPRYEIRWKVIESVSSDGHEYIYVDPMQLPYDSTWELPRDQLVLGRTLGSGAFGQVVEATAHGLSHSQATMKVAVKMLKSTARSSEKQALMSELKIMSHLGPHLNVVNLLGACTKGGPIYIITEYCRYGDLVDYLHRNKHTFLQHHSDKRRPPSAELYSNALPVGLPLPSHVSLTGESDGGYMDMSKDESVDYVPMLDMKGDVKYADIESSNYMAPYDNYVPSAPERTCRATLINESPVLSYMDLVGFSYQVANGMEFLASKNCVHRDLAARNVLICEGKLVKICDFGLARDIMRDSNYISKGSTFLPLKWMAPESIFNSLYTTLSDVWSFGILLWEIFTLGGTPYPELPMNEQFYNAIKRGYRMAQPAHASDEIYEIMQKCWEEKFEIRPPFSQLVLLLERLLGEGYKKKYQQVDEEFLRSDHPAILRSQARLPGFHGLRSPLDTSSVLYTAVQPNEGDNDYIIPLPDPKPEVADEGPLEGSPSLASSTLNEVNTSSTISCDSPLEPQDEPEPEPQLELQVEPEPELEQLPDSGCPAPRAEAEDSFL
Put plainly: PDGF dependent cell proliferation (MTS). The note with it: PDGFRβ NIH-3T3 cells, PDGF BB 50 ng/ml, 72 hours, serum-free medium; read-out: GI50 nM (PDGF ligand-dependent cell proliferation). Format: cell-based. The procedure: PDGF Dependent Cell Proliferation:
NIH-3T3 mouse fibroblasts cell line engineered to stably express human PDGFIRβ was constructed and used to evaluate PDGF dependent cell proliferation. PDGFRβ NIH-3T3 cells were plated into 96-well plates at 5,000 per well and incubated with serum-free medium for 24 hours. Compounds and PDGF BB (50 ng/ml) were added and incubated for 72 hours in serum-free medium. The effects on proliferation were determined by addition of MTS reagent (Promega) according to the instruction, incubation for 2 hours at 37° C. in CO2 incubator, and record the absorbance at 490 nm using an ELISA plate reader.

The test system of another data set is Bel-7402. In words: Tumor cell proliferation (MTS), Bel-7402. Format: cell-based. As to conditions: Homo sapiens, 72 hours, complete medium. The procedure: as §1, §2, §3
Bel-7402: Hepatocellular carcinoma

The next data set concerns HCT-8. In words: Tumor cell proliferation (MTS), HCT-8. The note with it: Homo sapiens, 72 hours, complete medium. It is filed as cell-based. Here is the method:
as §1, §2, §3
HCT-8: Ileocecal colorectal adenocarcinoma

The subject of data set [1] is total HDAC enzyme (HeLa extract). In words: In vitro inhibition of total HDAC enzyme activity (HDAC Fluorimetric Assay/Drug Discovery Kit). It is filed as biochemical. Here is the method: Measurement of In Vitro Inhibition of Total HDAC Enzyme Activity:
The in vitro inhibition of total HDAC enzyme was determined by HDAC Fluorimetric Assay/Drug Discovery Kit (BIOMOL) according to manufacture's instruction. • 1. Add Assay buffer, diluted trichostatin A or test inhibitor to appropriate wells of the microtiter plate. Following table lists examples of various assay types and the additions required for each test.
• 2. Add diluted HeLa extract or other HDAC sample to all wells except those that are to be “No Enzyme Controls” (Blank). • 3. Allow diluted Fluor de Lys™ Substrate and the samples in the microtiter plate to equilibrate to assay temperature (25° C.). • 4. Initiate HDAC reactions by adding diluted substrate (25 μl) to each well and mixing thoroughly. • 5. Allow HDAC reactions to proceed for desired length of time and then stop them by addition of Fluor de Lys™ Developer (50 μl). Incubate plate at room temperature (25° C.) for 10-15 min. • 6. Read samples in a microtiter-plate reading fluorimeter capable of excitation at a wavelength in the range 350-380 nm and detection of emitted light in the range 440-460 nm. Measurement of In Vivo Inhibition of HDAC Subtype Activity: […]

A short description of data set [2]: Body weight in HCT-8 xenograft study (Example 54). Format: in vivo, nu/nu mice. The procedure:
The antitumor activity of compound 33 and compound 34 were measured in human HCT-8 colon cancer xenograft model. The female nu/nu mice of 18˜20 g were fed by normal diet for 3 days. Then the cultured HCT-8 human colon cancer cells were implanted into the armpit of 50 mice. When tumors had reached approximately 100 mm^3, the mice were divided into 6 groups randomly. Each group has 8 mice. One group was treated with vehicle. One group was treated with sutent, the positive control drug. Two groups were treated with compound 33. The other two groups were treated with compound 34. Each group was dosed orally once a day for 20 days. Tumor volumes as established by caliper measurements were recorded twice per week, along with body weights. At the end of study, the mice were killed, and tumors were weighed. The tumor growth inhibition of each group was calculated using the formula {[(the average tumor weight of vehicle group)−(the average tumor weight of drug group)]/(the average tumor weight of vehicle group)}×100%.

Setting [3] is: 30 mg/kg orally once a day for 20 days.
The mark [4] stands for this setting: 60 mg/kg orally once a day for 20 days.

For `COc1ccc2c(Oc3ccc4c(C(=O)Nc5ccccc5N)cccc4c3)ccnc2c1` [Example 31, N-(2-aminophenyl)-6-(7-methoxyquinolin-4-yloxy)-1-naphthamide], the GI50 in the data set with A-498 was determined as 9.5 µM; in the data set on MCF-7, 10.2 µM; with A549, 17.3 µM; with HUVEC cells, 5 nM; on human PDGFRβ, 46 nM; with Bel-7402, 30 µM. This molecule returned a GI50 in the data set with HCT-8 of 6.6 µM. Besides, the “Class I HDAC (P21 reporter assay) Fold Induction at 10 μM” value with Class I HDAC turned out to be 1.6 Fold. Further, in data set [1], the “% inhibition of total HDAC enzyme activity at 30 μM” value amounted to 10.1%.
On to `COc1ccc2c(Oc3ccc4c(C(=O)NCc5ccc(C(=O)Nc6ccccc6N)cc5)cccc4c3)ccnc2c1` [Example 33, N-(4-((2-aminophenyl)carbamoyl)benzyl)-6-(7-methoxyquinolin-4-yloxy)-1-naphthamide], for which the GI50 turned out to be 1.9 µM in the data set with A-498; 2 µM with MCF-7; 2.1 µM in the data set with A549; 8 nM in the data set on HUVEC cells; 300 nM at human PDGFRβ; 2.8 µM with Bel-7402. In the data set on HCT-8, this molecule had a GI50 of 1.5 µM. For the same molecule, in the data set with Class I HDAC, the “Class I HDAC (P21 reporter assay) Fold Induction at 10 μM” value is on record as 2.8 Fold. In addition, the “Body weight (g) end” value in data set [2] (setting [3]) came to 21.1 ± 2.2 g; in [2] (setting [4]), 21.4 ± 1.5 g. The results for the “Body weight (g) start” value in data set [2] (setting [3]) and in data set [2] (setting [4]) were 19.0 ± 1.3 g and 19.4 ± 0.8 g, respectively. The “% inhibition of total HDAC enzyme activity at 30 μM” value in [1] is 39.1%.
